Experimental data as given in patent US20190374534A1, “LIQUID PHARMACEUTICAL COMPOSITIONS COMPRISING PERGOLIDE” (Boehringer Ingelheim Vetmedica GmbH, priority 2018, published 2019).
Structures can show the parent of a compound that is named as a salt.

Test: Particle-size distribution (PSD) analysis, Malvern Mastersizer 3000
Type: physicochemical
Settings: certificate of analysis, FIG. 1; after spiral jet-mill micronization
From the text: PARTICLE-SIZE DISTRIBUTION (PSD) ANALYTICAL METHOD: Equipment Malvern Mastersizer 3000 equipped with Hydro MV dispersion unit Dispersant Preparation—1. Fill the dispersion unit with hexane—2. Check that the channel 1 of background signal is less than 80 and no anomalous spikes are present—3. Check the background signal: it has to be stable and complying with the following limits: Channel 1<100, Channel 20<60. Sample Preparation—Randomize the sample by manually tumbling and rolling for 30 seconds, weigh approximately 15 mg of powder in a 100 mL Erlenmeyer flask, add 2 mL of Span 85 (Sorbitane trioleate; 5% w/w water solution). A homogeneous mixture, using the tip of a small stainless steel spatula, has to be obtained. Using a Pasteur pipette add 1 mL of water and homogenize the suspension. Repeat this operation until a volume of 8-10 mL is reached. Sonicate the sample for 5 seconds in an ultrasonic bath (25 kHz). Procedure—1. Once a stable background signal is obtained, proceed with the SOP—2. Add the sample until the obscuration target is reached. Avoid droplets to fall directly into the liquid when adding the sample suspension putting the pipette tip under water—3. Initiate the measurement—4. The particle size distribution values (D10, D50 and D90) are taken directly from the Malvern screen. All three values determined for a sample are average and rounded to obtain the final values.

SMILES: CCCN1C[C@H](CSC)C[C@@H]2c3cccc4[nH]cc(c34)C[C@H]21 [micronized pergolide mesylate, (8β)-8-[(methylthio)methyl]-6-propylergoline]
- median particle size: 13.3 μm
- particle size distribution D90 value: 39.4 μm
